In ChEMBL document CHEMBL1201862, “PubChem BioAssay data set” (2004):
Active and inactive are the calls of the source.

Experiments:
[1] = HepG2 cell cytotoxicity, dose response, cytotoxicity control for Shn3 inhibitor project, CellTiter-Glo, cherry-picked (AID 624134); type: functional, cell-based
Streptokinase A = molecular target: T1, Streptokinase A (Streptococcus pyogenes serotype M1, UniProt P10520); test: S. pyogenes streptokinase expression inhibitors, potency, dose response, plasminogen activation absorbance, OD405 (AID 1914); type: functional, Streptococcus pyogenes M1 GAS;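 also: secreted streptokinase activity via plasminogen activation per viability signal from cell pellet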
T1 sequence (P10520 whole entry): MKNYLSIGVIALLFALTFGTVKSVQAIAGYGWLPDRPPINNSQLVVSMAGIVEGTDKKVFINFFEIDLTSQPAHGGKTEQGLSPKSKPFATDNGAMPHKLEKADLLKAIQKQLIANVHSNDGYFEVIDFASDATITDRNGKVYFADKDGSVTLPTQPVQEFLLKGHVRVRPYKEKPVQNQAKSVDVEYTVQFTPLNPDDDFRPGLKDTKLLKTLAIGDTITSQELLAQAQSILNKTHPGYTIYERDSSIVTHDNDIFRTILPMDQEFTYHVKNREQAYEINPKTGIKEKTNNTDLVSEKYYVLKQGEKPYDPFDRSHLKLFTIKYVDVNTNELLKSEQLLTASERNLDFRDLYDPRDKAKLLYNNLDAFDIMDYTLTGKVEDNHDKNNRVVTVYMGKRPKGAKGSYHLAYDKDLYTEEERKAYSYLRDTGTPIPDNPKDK

[2] = molecular target: Heat shock protein HSP 90-alpha (Homo sapiens, UniProt P07900); type: functional, organism-based
Fatty acid synthase [3] = molecular target: T2, Fatty acid synthase (Homo sapiens, UniProt P49327); test: FAS thioesterase domain inhibitors, dose response, biochemical, kinetic fluorescence intensity (AID 624326); type: functional;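 also: rate of fluorescence rise from hydrolysis of a fluorogenic O-methyl fluorescein ester substrate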
[4] = Shn3 3'UTR reporter inhibitors, dose response, cell-based, Clone20 osteoblasts, firefly luciferase, cherry-picked (AID 624132); type: functional;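 also: firefly luciferase luminescence from reporter carrying the Shn3 3'UTR in osteoblasts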
Streptococcus [5] = test: Group A Streptococcus viability loss, dose response, counter-screen for streptokinase expression inhibitor project, luminescence, BacTiterGlo (AID 1915); type: functional, organism-based;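 also: potency for reduction of bacterial viability or growth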
Beta Lactamase = Beta Lactamase (Pseudomonas aeruginosa, UniProt Q932Y6); test: beta-lactamase reporter inhibitor potency, dose response, artefact control for NOD2-RIPK2 interaction inhibitor project, BLA reporter cells, FRET fluorescence (AID 651552); type: functional, cell-based
Fatty acid synthase [6] = molecular target: T2, Fatty acid synthase; test: FAS thioesterase domain inhibitors, dose response, biochemical, endpoint fluorescence intensity, uHTS hits (AID 624327); type: functional;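 also: fluorescence from hydrolysis of an O-methyl fluorescein acyl ester substrate by the enzyme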
Streptococcus [7] = test: Luminescence Microorganism-Based Dose Response Follow up to Identify Compounds Cytotoxic to Streptococcus. [Related pubchem assays: 1677 (Project Summary), 1915, 1914, 1902 (Retest at Dose), 1900 (Counter Screen), 1662 (Primary HTS)]; type: functional, organism-based
[8] = Fluorescence-based cell-based high throughput dose response assay for inhibitors of the interaction of nucleotide-binding oligomerization domain containing 2 (NOD2) and the receptor-interacting serine-threonine kinase 2 (RIPK2).; type: functional; conditions: Homo sapiens
[9] = control 3'UTR Renilla luciferase suppression, dose response, counter-screen for Shn3 inhibitor project, cell-based, Clone20-Shn3RL, cherry-picked (AID 624133); type: functional
[10] = tested on: Streptococcus sp. 'group A'; test: growth inhibition of control SK(-) GAS strain, dose response, counter-screen for streptokinase expression inhibitor project, luminescence, kanamycin, BacTiterGlo, confirmation (AID 1900); type: functional, organism-based
[11] = molecular target: Neuropeptides B/W receptor type 1 (Homo sapiens, UniProt P48145); test: Fluorescence-based dose response cell-based high throughput screening assay to identify antagonists of the G-protein coupled receptor 7 (GPR7). [Related pubchem assays: 1952 (Screening assay (GPR7 antagonists).), 1880 (Summary AID.)]; type: functional
[12] = molecular target: Melanin-concentrating hormone receptor 1 (Homo sapiens, UniProt Q99705); test: Fluorescence-based counterscreen for antagonists of the G-protein coupled receptor 7 (GPR7): cell-based high throughput dose response assay to identify antagonists of the melanin-concentrating hormone receptor 1 (MCHR1).; type: functional
[13] = molecular target: Acyl-homoserine lactone acylase PvdQ (Pseudomonas aeruginosa (strain LESB58), UniProt Q9I194); test: P. aeruginosa PvdQ acylase inhibitors, dose response, biochemical, fluorescence, plate reader and imaging, cherry-picks (AID 493231)
[14] = molecular target: T3, Neuropeptide Y receptor type 1 (Homo sapiens, UniProt P25929); test: Fluorescence-based dose response cell-based high-throughput screening assay for agonists of NPY-Y1. [Related pubchem assays: 1697 (Screening assay (NPY-Y1 agonists).), 1359 (Screening assay (NPY-Y2 potentiators or agonists).), 1304 (Screening assay (NPY-Y1 potentiators or agonists).), 1704 (Screening assay (CNGC inhibitors).), 1791 (Summary AID.)]; type: functional
[15] = molecular target: T4, Neuropeptide Y receptor type 2 (Homo sapiens, UniProt P49146); test: Fluorescence-based counterscreen for agonists of NPY-Y1: cell-based high-throughput dose response assay for agonists of NPY-Y2.; type: functional
HEK293 [16] = test: Fluorescence-based counterscreen for potentiators or agonists of NPY-Y1: cell-based high-throughput dose response assay for inhibitors of cyclic nucleotide gated ion channel (CNGC) activity. In this assay, the parental HEK293 cell line transfected with a cyclic-nucleotide gated ion channel (CNGC)-based cAMP sensor is used to measure inhibition of isoproterenol-induced CNGC …; type: functional; conditions: Homo sapiens
[17] = molecular target: G2/mitotic-specific cyclin-B1 (Homo sapiens, UniProt P14635); test: Counterscreen assay for inhibitors of Wee1 degradation: dose response cell-based assay to identify inhibitors of cyclin B degradation. [Related pubchem assays: 1410, 1321 ]; type: functional
[18] = Luminescence Cell-Based Dose Response HTS to Identify Inhibitors of 5'UTR Stem-Loop Driven Prion Protein mRNA Translation in H4 Neuroglioblastoma Cells. [Related pubchem assays: 1827 (Project Summary), 1813 (Primary HTS)]; type: functional
[19] = inhibitors of clade B AD8 Env fusion, dose response, cell-based, cherry-pick (AID 652062); type: functional;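 also: luciferase signal from cell-cell fusion driven by HIV-1 clade B AD8 Env; potency is for inhibitors of fusion seen as a drop in luminescence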
[20] = inhibitors of firefly luciferase expression or activity, dose response, H4 neuroglioma cells, luminescence (AID 1990); type: functional, cell-based
[21] = off-target signal loss in HeLa-CEM21 co-culture – HeLa F-luc CTL cells, cherry-picked, counter-screen for HIV-1 Env fusion inhibitor project, dose response (AID 652040); type: functional, cell-based;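 also: potency for signal decrease marking cytotoxic or nonspecific inhibition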
[22] = ZM109 Env clade C HIV-1 fusion inhibitors, dose response, HeLa effector, CEM target cells, luciferase, cherry-pick (AID 652058); type: functional, cell-based
[23] = inhibitors of SNCA 5'UTR-driven reporter translation, confirmation, H4 neuroglioma cells, luminescence (AID 1988); type: functional, cell-based
Wee1-like protein kinase = Wee1-like protein kinase (Homo sapiens, UniProt P30291); test: Dose Response Cell-based Assay for Inhibitors of Wee1 Degradation. [Related pubchem assays: 1410, 1321 ]; type: functional
[24] = inhibitors of HIV Env-driven cell fusion, dose response, cherry-pick (AID 652057); type: functional, cell-based
Aminopeptidase N = molecular target: T5, Aminopeptidase N (Plasmodium falciparum FcB1/Columbia, UniProt O96935); test: P. falciparum M1AAP inhibitors, biochemical, fluorogenic H-Leu-NHMec substrate, 1536-well (AID 1445); design: species or system Plasmodium falciparum 3D7, 3D7
T5 sequence (O96935 whole entry): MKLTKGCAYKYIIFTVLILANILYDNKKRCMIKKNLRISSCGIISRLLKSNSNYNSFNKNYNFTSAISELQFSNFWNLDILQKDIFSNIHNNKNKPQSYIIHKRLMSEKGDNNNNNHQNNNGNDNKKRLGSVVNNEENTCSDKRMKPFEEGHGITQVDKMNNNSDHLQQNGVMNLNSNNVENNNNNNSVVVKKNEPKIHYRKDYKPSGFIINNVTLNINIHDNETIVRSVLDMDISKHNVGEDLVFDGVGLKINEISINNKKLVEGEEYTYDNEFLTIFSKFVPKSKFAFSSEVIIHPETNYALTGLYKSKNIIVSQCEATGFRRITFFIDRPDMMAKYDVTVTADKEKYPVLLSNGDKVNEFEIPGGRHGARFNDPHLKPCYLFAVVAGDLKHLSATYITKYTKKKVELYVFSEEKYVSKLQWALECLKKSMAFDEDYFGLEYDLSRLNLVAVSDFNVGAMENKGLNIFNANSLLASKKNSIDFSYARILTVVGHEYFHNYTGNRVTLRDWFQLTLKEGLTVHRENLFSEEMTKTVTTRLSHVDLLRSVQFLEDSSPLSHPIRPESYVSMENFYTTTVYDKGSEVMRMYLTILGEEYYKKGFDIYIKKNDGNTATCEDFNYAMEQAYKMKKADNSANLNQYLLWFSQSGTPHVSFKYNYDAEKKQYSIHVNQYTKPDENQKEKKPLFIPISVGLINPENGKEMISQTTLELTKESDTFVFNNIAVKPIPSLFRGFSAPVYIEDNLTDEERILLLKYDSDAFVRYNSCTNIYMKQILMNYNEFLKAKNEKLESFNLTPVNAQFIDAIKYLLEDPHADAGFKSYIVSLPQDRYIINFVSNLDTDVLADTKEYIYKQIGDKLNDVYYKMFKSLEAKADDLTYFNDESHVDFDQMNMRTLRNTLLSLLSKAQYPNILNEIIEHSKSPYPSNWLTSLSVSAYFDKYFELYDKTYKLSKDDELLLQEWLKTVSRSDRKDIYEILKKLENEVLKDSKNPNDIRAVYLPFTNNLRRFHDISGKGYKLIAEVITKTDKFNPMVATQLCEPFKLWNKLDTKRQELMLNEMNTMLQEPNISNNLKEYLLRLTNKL

HEK293 [25] = test: Fluorescence-based counterscreen for potentiators or agonists of NPY-Y2: cell-based high-throughput dose response assay to identify inhibitors of cyclic nucleotide gated ion channel (CNGC) activity. In this assay, the parental HEK293 cell line transfected with a cyclic-nucleotide gated ion channel (CNGC)-based cAMP sensor is used to measure inhibition of isoproterenol-induced CNGC activity by test compound.; type: functional; conditions: Homo sapiens
[26] = molecular target: T4, Neuropeptide Y receptor type 2; test: Fluorescence-based cell-based high-throughput dose response assay for agonists of NPY-Y2. [Related pubchem assays: 1703 (Screening assay (CNGC inhibitors).), 1359 (Screening assay (NPY-Y2 potentiators or agonists).), 1304 (Screening assay (NPY-Y1 potentiators or agonists).), 1710 (Screening assay (NPY-Y2 agonists).), 1791 (Summary AID.)]; type: functional
[27] = molecular target: T3, Neuropeptide Y receptor type 1; test: Fluorescence-based counterscreen for agonists of NPY-Y2: cell-based high-throughput dose response assay for agonists of NPY-Y1.; type: functional
Staphylococcus aureus = test: Inhibitors of Bacterial Quorum Sensing Structure Activity Relationship (SAR) Analysis: Dose Response Assay. [Related pubchem assays: 700, 527 ]; type: functional, organism-based
[28] = molecular target: Serine/threonine-protein phosphatase PP1-alpha catalytic subunit (Homo sapiens, UniProt P62136); test: PP1 phosphatase inhibitors, dose response, biochemical, fluorescence (AID 2403);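 also: phosphatase turnover of OMFP into fluorescent 3-O-methylfluorescein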
[29] = molecular target: Serine/threonine-protein phosphatase (Homo sapiens, UniProt Q9BPW0); test: Counterscreen for inhibitors of PP1: fluorescence-based biochemical high throughput dose response assay to identify inhibitors of Protein Phosphatase 5 (PP5). [Related pubchem assays: 2034 (Summary (PP5 inhibitors)), 1987 (PP5 inhibitors in singlate), 2235 (PP1 inhibitors in singlate)]

T3 sequence (P25929 whole entry): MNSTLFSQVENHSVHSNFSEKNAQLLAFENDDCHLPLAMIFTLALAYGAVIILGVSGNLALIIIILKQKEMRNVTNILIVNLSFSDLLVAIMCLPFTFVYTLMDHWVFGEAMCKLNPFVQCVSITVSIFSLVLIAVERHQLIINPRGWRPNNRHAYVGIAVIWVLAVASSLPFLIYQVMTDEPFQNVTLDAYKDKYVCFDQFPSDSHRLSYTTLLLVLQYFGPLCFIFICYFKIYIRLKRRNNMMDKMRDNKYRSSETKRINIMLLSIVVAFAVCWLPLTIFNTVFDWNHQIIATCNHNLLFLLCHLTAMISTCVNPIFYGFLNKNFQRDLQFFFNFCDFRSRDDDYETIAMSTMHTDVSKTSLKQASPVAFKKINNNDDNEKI
T2 sequence (P49327 whole entry, the tested form may be a part): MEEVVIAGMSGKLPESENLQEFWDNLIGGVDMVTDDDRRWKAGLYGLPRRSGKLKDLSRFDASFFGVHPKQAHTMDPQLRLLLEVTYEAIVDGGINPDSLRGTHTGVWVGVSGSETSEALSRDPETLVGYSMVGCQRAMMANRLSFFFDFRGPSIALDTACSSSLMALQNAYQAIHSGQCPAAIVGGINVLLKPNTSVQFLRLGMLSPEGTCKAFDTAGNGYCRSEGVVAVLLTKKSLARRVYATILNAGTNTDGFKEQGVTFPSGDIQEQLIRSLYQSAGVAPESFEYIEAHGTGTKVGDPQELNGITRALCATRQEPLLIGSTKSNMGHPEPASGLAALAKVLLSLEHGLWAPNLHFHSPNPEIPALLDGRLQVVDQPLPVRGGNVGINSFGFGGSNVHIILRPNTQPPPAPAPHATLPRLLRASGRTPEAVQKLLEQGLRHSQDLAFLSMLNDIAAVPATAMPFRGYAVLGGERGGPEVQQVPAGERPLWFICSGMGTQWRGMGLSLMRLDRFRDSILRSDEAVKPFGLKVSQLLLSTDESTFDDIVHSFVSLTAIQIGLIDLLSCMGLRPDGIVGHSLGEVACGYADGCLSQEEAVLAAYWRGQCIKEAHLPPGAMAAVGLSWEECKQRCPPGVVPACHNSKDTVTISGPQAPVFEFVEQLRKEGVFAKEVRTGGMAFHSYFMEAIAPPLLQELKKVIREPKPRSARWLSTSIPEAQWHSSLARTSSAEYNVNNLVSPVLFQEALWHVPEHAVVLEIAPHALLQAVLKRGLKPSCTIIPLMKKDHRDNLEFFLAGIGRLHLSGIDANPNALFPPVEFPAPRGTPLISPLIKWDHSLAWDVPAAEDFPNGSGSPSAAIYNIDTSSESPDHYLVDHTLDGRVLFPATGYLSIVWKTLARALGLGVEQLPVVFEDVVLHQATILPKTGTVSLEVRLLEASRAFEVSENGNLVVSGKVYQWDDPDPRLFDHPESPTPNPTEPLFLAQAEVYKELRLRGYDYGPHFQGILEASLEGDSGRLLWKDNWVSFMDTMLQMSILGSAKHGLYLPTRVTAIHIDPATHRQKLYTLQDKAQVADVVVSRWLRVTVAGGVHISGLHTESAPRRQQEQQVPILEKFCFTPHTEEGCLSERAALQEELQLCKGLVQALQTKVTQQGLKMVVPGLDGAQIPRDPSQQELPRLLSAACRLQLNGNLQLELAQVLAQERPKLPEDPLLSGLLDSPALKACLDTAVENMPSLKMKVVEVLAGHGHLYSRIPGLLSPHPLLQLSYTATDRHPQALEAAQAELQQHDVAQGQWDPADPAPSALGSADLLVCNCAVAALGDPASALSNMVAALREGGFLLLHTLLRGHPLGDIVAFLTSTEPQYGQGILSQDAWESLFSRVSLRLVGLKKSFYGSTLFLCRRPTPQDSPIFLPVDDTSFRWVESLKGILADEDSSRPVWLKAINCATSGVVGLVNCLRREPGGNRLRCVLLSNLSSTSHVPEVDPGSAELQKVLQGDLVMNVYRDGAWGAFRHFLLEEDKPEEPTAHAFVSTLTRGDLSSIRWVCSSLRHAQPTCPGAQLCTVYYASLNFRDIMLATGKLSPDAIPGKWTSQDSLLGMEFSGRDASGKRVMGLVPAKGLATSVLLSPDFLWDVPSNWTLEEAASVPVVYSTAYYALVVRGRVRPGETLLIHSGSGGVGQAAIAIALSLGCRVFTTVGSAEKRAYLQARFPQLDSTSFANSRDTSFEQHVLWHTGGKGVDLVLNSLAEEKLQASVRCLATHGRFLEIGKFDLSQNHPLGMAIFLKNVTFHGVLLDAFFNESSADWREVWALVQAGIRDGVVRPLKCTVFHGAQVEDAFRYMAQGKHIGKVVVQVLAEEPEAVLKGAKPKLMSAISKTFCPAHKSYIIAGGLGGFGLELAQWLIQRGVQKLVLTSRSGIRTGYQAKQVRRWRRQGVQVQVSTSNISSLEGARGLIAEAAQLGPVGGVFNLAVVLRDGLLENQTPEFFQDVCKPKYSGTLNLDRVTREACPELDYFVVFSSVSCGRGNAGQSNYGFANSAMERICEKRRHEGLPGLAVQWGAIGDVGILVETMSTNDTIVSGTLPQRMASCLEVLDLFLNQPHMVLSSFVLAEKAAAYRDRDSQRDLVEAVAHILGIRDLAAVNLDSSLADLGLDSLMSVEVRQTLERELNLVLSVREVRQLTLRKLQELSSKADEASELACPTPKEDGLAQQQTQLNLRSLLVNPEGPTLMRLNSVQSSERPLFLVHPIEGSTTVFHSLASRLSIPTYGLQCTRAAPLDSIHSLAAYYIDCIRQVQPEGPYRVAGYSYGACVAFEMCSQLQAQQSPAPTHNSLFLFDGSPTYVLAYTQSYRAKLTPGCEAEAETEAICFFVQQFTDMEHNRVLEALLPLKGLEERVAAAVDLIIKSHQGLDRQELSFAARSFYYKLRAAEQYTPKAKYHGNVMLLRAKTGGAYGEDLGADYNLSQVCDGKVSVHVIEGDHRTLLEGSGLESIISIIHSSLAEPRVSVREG
T4 sequence (P49146 whole entry): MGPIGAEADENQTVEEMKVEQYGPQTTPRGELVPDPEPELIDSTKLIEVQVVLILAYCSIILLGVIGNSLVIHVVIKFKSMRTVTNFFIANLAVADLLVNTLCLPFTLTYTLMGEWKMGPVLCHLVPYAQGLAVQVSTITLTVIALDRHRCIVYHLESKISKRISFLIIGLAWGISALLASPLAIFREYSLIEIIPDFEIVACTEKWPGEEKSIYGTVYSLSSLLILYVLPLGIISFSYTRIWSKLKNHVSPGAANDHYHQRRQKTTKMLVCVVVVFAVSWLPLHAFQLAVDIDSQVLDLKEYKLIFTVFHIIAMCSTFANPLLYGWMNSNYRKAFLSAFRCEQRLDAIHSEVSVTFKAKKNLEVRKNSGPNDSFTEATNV
Sequence of Neuropeptides B/W receptor type 1 (P48145 whole entry): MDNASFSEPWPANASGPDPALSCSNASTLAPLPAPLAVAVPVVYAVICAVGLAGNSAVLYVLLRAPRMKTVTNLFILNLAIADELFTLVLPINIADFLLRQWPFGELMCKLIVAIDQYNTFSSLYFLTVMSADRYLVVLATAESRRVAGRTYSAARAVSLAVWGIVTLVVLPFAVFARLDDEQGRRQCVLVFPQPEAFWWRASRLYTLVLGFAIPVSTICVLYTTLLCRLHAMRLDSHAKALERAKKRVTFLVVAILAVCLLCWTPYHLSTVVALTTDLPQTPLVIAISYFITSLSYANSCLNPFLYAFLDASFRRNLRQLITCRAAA
Sequence of Melanin-concentrating hormone receptor 1 (Q99705 whole entry): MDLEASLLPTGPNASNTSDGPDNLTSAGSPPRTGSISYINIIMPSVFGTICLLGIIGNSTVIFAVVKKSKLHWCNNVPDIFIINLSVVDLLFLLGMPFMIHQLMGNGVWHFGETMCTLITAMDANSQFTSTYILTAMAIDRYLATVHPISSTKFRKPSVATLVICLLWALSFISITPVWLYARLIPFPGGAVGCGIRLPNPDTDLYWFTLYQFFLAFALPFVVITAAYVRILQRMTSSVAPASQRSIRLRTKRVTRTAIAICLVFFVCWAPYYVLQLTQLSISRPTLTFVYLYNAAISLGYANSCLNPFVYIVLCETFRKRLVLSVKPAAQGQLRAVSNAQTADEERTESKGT
Sequence of Wee1-like protein kinase (P30291 whole entry, the tested form may be a part): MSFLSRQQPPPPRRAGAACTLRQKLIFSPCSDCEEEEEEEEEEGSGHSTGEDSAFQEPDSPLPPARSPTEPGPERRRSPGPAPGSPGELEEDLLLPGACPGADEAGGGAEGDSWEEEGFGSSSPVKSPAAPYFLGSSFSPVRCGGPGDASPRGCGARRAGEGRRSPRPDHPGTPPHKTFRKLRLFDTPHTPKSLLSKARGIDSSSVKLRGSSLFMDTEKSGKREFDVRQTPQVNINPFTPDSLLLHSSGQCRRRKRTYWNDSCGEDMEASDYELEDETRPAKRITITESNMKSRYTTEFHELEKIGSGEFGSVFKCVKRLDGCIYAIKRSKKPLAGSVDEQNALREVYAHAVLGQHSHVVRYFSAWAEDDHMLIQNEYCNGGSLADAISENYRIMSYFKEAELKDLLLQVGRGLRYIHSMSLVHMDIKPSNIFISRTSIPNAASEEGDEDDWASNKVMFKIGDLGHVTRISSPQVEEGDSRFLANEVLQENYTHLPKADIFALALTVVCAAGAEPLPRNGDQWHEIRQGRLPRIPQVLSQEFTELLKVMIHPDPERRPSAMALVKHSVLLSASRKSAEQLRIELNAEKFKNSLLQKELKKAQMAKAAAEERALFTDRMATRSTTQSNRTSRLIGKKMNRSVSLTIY
Sequence of Beta Lactamase (Q932Y6 whole entry, the tested form may be a part): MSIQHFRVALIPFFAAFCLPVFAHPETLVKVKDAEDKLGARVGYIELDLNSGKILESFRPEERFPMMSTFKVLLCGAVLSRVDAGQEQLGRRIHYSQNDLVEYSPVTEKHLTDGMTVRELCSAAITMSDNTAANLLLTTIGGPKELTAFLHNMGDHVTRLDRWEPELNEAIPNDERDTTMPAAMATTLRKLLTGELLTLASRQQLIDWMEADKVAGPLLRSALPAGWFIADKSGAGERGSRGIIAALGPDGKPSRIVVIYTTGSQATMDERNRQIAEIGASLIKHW

With CC[C@@H](C)[C@H](NC(=O)OC(C)(C)C)c1nnc(S(=O)(=O)Cc2cc(C)ccc2C)o1 the AC50 [1] was 45.1 µM (active), the EC50 (Streptokinase A) was 3.43 µM (active) and the AC50 [2] was 4.36 µM (active). The IC50 (Fatty acid synthase [3]) was 4.12 µM (active), the AC50 [4] was 5.77 µM (active) and the EC50 (Streptococcus [5]) was > 150 µM (not active). The IC50 (Beta Lactamase) was 15.2 µM (inactive), the IC50 (Fatty acid synthase [6]) was 3.33 µM (active) and the EC50 (Streptococcus [7]) was 33.5 µM (active). For the same compound, the IC50 [8] was 3.12 µM (active), the AC50 [9] was 15.4 µM (active) and the EC50 [10] was 16.2 µM (active).

With CCOC(=O)CNC(c1ccccc1)c1cc(Br)ccc1NC(C)=O (centres undefined) the IC50 [11] was > 43.8 µM (not active) and the IC50 [12] was > 43.8 µM (not active).

With CCOC(=O)N1CCN(c2nc3ccccn3c(=O)c2C=O)CC1 the AC50 [13] was 32.9 µM (active).

For CN(C)Cc1c(O)ccc2oc(Cc3ccccc3)cc12, the EC50 [14] was 14.7 µM (not active), the EC50 [15] was > 35.4 µM (not active) and the IC50 (HEK293 [16]) was > 35.4 µM (not active).

With CCOc1cccc(N(C(=O)Cc2cccs2)C(C(=O)NC2CCCCC2)c2cccn2C)c1 (centres undefined) the EC50 [17] was > 49.7 µM (not active), the EC50 [18] was > 120 µM (not active) and the AC50 [19] was 42 µM (active). For the same compound, the EC50 [20] was 15.1 µM (active), the AC50 [21] was 55.9 µM (active) and the AC50 [22] was 24.5 µM (active). The EC50 [23] was 19.1 µM (active), the EC50 (Wee1-like protein kinase) was > 49.7 µM (not active) and the AC50 [24] was 6.74 µM (active).

For COc1ccc(CN2C(=O)/C(=C\Nc3ccccc3C(=O)O)c3ccccc3C2=O)cc1, the IC50 (Aminopeptidase N) was 24.7 µM (active), the EC50 (HEK293 [25]) was > 35.4 µM (not active) and the EC50 [26] was > 35.4 µM (not active). For the same compound, the EC50 [27] was > 11.8 µM (not active).

With COc1ccc(CC(=O)Nc2oc(-c3ccccc3)c(-c3ccccc3)c2C#N)cc1 the IC50 (Staphylococcus aureus) was 1.96 µM (active).

In the case of COc1cnc(-c2ccccn2)nc1Sc1ccc(F)cc1, the IC50 [28] is reported as 7.21 µM (active) and the IC50 [29] is reported as > 67 µM (not active).
